Measured values taken from US20100093536A1, “CONTROL OF GRASSY WEEDS WITH VINYLGLYCINES AND VINYLGLYCINE-PRODUCING ORGANISMS” (THE STATE OF OREGON ACTING BY AND THROUGH THE STATE BOARD …, priority 2008, published 2010).

System: Poa annua (annual bluegrass) seeds
Experiment: Standard GAF Bioassay System (Standard Poa Bioassay), seed germination scored after 7 days
Assay type: in vivo
Parameters: key to GERMINATION SCORE IN THE POA BIOASSAY (±Standard Error of the Mean) / GERMINATION SCORE (±Standard Error of the Mean): germination score, 0 = no germination to 4.0 = first true leaf emerged
Experimental: The seed of Poa annua (or other test seeds) were surface-sterilized by placing two to five grams of seeds in a 50 ml glass beaker, covering the seeds with a 50% (v/v) solution of H2SO4, and stirring vigorously for 5 minutes. The seed/acid mixture was filtered through a Gooch crucible and repeatedly rinsed with tap water to remove residual acid. The seeds were then placed in a beaker and covered with bleach (Clorox®, NaOCl, 5.25%) containing 1% (v/v) polyoxethylene sorbitan monolaurate (Tween®-20). The seeds were stirred for 5 minutes and then repeatedly rinsed with sterile deionized water and placed in a sterile Petri dish. The seeds were used immediately while wet or dried (spread in a thin layer and allowed to dry under a laminar flow hood with the Petri dish lid ajar for 4 to 8 hours) to prevent premature germination.
Bioassays for GAF activity were performed with Poa annua (annual bluegrass) seeds unless otherwise indicated. For each concentration of each test solution, 200 μl aliquots of solution were distributed to each of three wells of a sterile Costar® forty-eight well tissue culture plate (Corning® Costar® Number 3548). Three surface-sterilized Poa annua seeds were aseptically transferred to each well and submerged in the liquid, providing a total of nine observations for each concentration of each solution tested. The lid of the tissue culture plate was sealed with Parafilm® and the plate was placed in a germinator at 20° C. (8 hour day length at a light intensity of 50 μmol/m^2/s, 16 hour dark period) for seven days. Germination was scored on the basis of the following four-point system: • Score 0: No visible signs of germination. • Score 0.5: Seed coat split but plumule and coleorhiza are not visible. • Score 1.0: Plumule and coleorhiza visible. Plumule chlorotic and shorter than length of seed. Root not yet visible. • Score 1.5: Plumule still shorter than length of seed, but root is clearly visible. • Score 2.0: Plumule approximately equal in length to the seed. Root elongated. • Score 2.5: Plumule obviously longer than length of seed. First true leaf still enclosed in coleoptile. • Score 3.0: First true leaf emerged from coleoptile and green. Emerged portion of the leaf is obviously shorter than the coleoptile. • Score 3.5: First true leaf emerged from coleoptile and green. Emerged portion of the leaf is approximately equal in length to the coleoptile. • Score 4.0: First true leaf emerged from coleoptile and green. Emerged portion of the leaf is obviously longer than the coleoptile.

[1] = GAF Conc. 0, metal 12.5 μM, score 4.0 = normal germination, 1.0 = arrest
[2] = GAF Conc. 2X plus metal 12.5 μM

| SMILES | POA BIOASSAY SCORES (±Standard Error of the Mean) [1] | POA BIOASSAY SCORES (±Standard Error of the Mean) (GAF Conc. 0, metal 25 μM) | POA BIOASSAY SCORES (±Standard Error of the Mean) (GAF Conc. 0, metal 50 μM) | POA BIOASSAY SCORES (±Standard Error of the Mean) (GAF Conc. 0, metal 100 μM) | POA BIOASSAY SCORES (±Standard Error of the Mean) (GAF Conc. 0, metal 200 μM) | POA BIOASSAY SCORES (±Standard Error of the Mean) [2] | POA BIOASSAY SCORES (±Standard Error of the Mean) (GAF Conc. 2X plus metal 25 μM) | POA BIOASSAY SCORES (±Standard Error of the Mean) (GAF Conc. 2X plus metal 50 μM) | POA BIOASSAY SCORES (±Standard Error of the Mean) (GAF Conc. 2X plus metal 100 μM) | POA BIOASSAY SCORES (±Standard Error of the Mean) (GAF Conc. 2X plus metal 200 μM) | also measured |
| --- | --- | --- | --- | --- | --- | --- | --- | --- | --- | --- | --- |
| C[C@H](N)C(=O)O [Alanine] | – | – | – | – | – | – | – | – | – | – | GERMINATION SCORE (±Standard Error of the Mean) (WH6 culture filtrate 0, amino acid 0.3 mM): 4.0 ± 0.0; GERMINATION SCORE (±Standard Error of the Mean) (WH6 culture filtrate 0, amino acid 1 mM): 3.9 ± 0.1; GERMINATION SCORE (±Standard Error of the Mean) (WH6 culture filtrate 0, amino acid 3 mM): 4.0 ± 0.0; GERMINATION SCORE (±Standard Error of the Mean) (WH6 culture filtrate 0, amino acid 10 mM): 3.9 ± 0.1; GERMINATION SCORE (±Standard Error of the Mean) (WH6 culture filtrate 0, amino acid 30 mM): 3.2 ± 0.1; GERMINATION SCORE (±Standard Error of the Mean) (WH6 culture filtrate 0.1X plus amino acid 0.3 mM): 1.9 ± 0.1; GERMINATION SCORE (±Standard Error of the Mean) (WH6 culture filtrate 0.1X plus amino acid 1 mM): 3.3 ± 0.1; GERMINATION SCORE (±Standard Error of the Mean) (WH6 culture filtrate 0.1X plus amino acid 3 mM): 4.0 ± 0.0; GERMINATION SCORE (±Standard Error of the Mean) (WH6 culture filtrate 0.1X plus amino acid 10 mM): 4.0 ± 0.0; GERMINATION SCORE (±Standard Error of the Mean) (WH6 culture filtrate 0.1X plus amino acid 30 mM): 4.0 ± 0.0; reversal of the effects of GAF by amino acids, in words (in presence of WH6 culture filtrate): most effective |
| [Ca+2].[Cl-].[Cl-] [CaCl2] | 4.00 ± 0.00 | 4.00 ± 0.00 | 4.00 ± 0.00 | 4.00 ± 0.00 | 4.00 ± 0.00 | 1.00 ± 0.00 | 1.00 ± 0.00 | 1.00 ± 0.00 | 1.00 ± 0.00 | 1.00 ± 0.00 | – |
| [Cu] [Copper] | – | – | – | – | – | – | – | – | – | – | toxicity of trace metal in the Poa bioassay, in words (higher concentrations tested (up to 200 μM)): completely inhibiting germination |
| [Cl][Cu][Cl] [CuCl2] | 3.3 ± 0.17 | 2.9 ± 0.04 | 1.2 ± 0.27 | 0.30 ± 0.28 | 0.00 ± 0.00 | 1.00 ± 0.00 | 2.58 ± 0.06 | 3.94 ± 0.06 | 2.97 ± 0.03 | 2.69 ± 0.09 | – |
| O=S(=O)([O-])[O-].[Cu+2] [CuSO4] | 3.5 ± 0.00 | 3.00 ± 0.00 | 1.11 ± 0.11 | 0.00 ± 0.00 | 0.00 ± 0.00 | 1.00 ± 0.00 | 1.00 ± 0.00 | 1.00 ± 0.00 | 3.00 ± 0.00 | 0.00 ± 0.00 | – |
